Source: article PMC12402003 (Frontiers in Nutrition, 2025)

Key:
[1] = system: Caco-2 cell monolayers; test: Bidirectional transport across Caco-2 cell monolayer; format: in vitro ADME, human; settings: 50 μmol/L, no inhibitor
Protocol: The cells were seeded at a density of approximately 10^5 cells/cm^2 on TranswellTM filter (Corning Inc., Lowell, MA) and cultured for 21 d before use. Cell monolayer integrity was controlled by the measurement of trans-epithelial electrical resistance (TEER) with an EVOM epithelial voltammeter equipped with an electrode (World Precision Instruments, Sarasota, FL, United States). […] (a) R(%)=CBL×VBL/CAP×VAP×100 In this, R represents the absorption rate (as a percentage); CBL is the anthocyanin concentration of the BL side (in μM); VBL is the volume of anthocyanins from the BL (in L); CAP is the initial anthocyanin concentration of the AP side (in μM), and VAP is the volume of anthocyanins in the AP chamber (in L). The absorption rate of anthocyanins from BL to AP is calculated using the following Equation b: (b) R(%)=CAP×VAP/CBL×VBL×100 In this, R represents the absorption rate (as a percentage); CAP is the anthocyanin concentration from the AP side (in μM); VAP is the volume of anthocyanins in the AP chamber (in mL); CBL is the initial concentration from the BL side (in μM) and VBL is the volume of anthocyanins in the BL chamber (in L).

[2] = system: HepG2 cells; test: TG and TC content in OA-induced high-fat HepG2 cells; format: cell-based, human; settings: 1 mM OA high-fat model vs control group
Protocol: For high fat HepG2 model: […] Afterwards, cells were harvested and lysed. […] For TG and TC assay: […] The medium was removed and the cells were washed twice with PBS. The levels of triglycerides (TG) and total cholesterol (TC) in the cells were determined according to the instructions of test kits.

[3] = system: Fasn; test: Western blot of Fasn protein in Caco-2/HepG2 co-culture; format: cell-based, human; settings: 1 mM OA vs. control, p < 0.01
Protocol: Cells from the co-culture model were lysed and supernatants were collected. The protein concentrations were determined using the BCA Protein Quantitation Kit. Then electrophoresis of samples was conducted using a SDS-PAGE kit (Beyotime Biotechnology) following the manufacturer’s instructions and transferred to poly-vinylidene difluoride (PVDF) membrane. Next, membranes were incubated in 5% nonfat milk to block non-specific antibody binding for 30 min at room temperature and followed by incubating with primary antibodies and secondary antibodies. Chemiluminescence based-images of the blots were acquired using ImageQuant LAS 500 system (GE, United States). Protein bands were quantified using ImageJ (version 1.53a) software. The changes in expression levels of these proteins detected finally are used to evaluate the sample’s effect on lipid metabolism.

SMILES | ER (efflux rate) ([1]; 30 min) | Papp (AP → BL) ([1]; 30 min) | ER (efflux rate) ([1]; 60 min) | Papp (AP → BL) ([1]; 60 min) | ER (efflux rate) ([1]; 90 min) | Papp (AP → BL) ([1]; 90 min) | ER (efflux rate) ([1]; 120 min) | Papp (AP → BL) ([1]; 120 min) | ER (efflux rate) ([1]; 150 min) | Papp (AP → BL) ([1]; 150 min) | increase of TC level [2] | increase of TG level [2] | Fasn protein expression level [3]
O=C1OC2(c3ccc(O)cc3Oc3cc(O)ccc32)c2ccccc21 [Fluorescin, Fluorescein, reference compound] | 0.56 | 5.75 ± 0.17 ×10^−5 cm /s | 0.34 | 5.07 ± 1.72 ×10^−5 cm /s | 0.3 | 4.59 ± 2.21 ×10^−5 cm /s | 0.27 | 4.6 ± 2.63 ×10^−5 cm /s | 0.25 | 4.65 ± 2.94 ×10^−5 cm /s | – | – | –
CCCCCCCC/C=C\CCCCCCCC(=O)O [OA, Oleic acid] | – | – | – | – | – | – | – | – | – | – | 12% | 22% | 1.59 ± 0.16 fold
